These results are taken from ChEMBL document CHEMBL1641363, “Fragment-based discovery of 6-substituted isoquinolin-1-amine based ROCK-I inhibitors” (Bioorg Med Chem Lett, 2011).

Data set [1] can be described thus: Plasma clearance in C57 mouse. Type of data set: ADME, organism-based.
A short description of data set [2]: Half life in C57 mouse. The data set is classed as ADME, organism-based. The conditions noted are these: in vivo.
Data set [3] concerns the target Casein kinase I isoform alpha (Homo sapiens) (UniProt P48729). As to conditions: 10 uM.
Description: Inhibition of CK1 at 10 uM
In data set [4] the target is Mitogen-activated protein kinase kinase kinase kinase 4 (Homo sapiens) (UniProt O95819). The conditions noted are these: 10 uM.
Description: Inhibition of HGK at 10 uM
Data set [5] has as its target Platelet-derived growth factor receptor alpha (Homo sapiens) (UniProt P16234). The conditions noted are these: 10 uM.
Description: Inhibition of PDGFRA at 10 uM
In data set [6] the target is T1, Serine/threonine-protein kinase D2 (Homo sapiens) (UniProt Q9BZL6).
T1 sequence (whole entry): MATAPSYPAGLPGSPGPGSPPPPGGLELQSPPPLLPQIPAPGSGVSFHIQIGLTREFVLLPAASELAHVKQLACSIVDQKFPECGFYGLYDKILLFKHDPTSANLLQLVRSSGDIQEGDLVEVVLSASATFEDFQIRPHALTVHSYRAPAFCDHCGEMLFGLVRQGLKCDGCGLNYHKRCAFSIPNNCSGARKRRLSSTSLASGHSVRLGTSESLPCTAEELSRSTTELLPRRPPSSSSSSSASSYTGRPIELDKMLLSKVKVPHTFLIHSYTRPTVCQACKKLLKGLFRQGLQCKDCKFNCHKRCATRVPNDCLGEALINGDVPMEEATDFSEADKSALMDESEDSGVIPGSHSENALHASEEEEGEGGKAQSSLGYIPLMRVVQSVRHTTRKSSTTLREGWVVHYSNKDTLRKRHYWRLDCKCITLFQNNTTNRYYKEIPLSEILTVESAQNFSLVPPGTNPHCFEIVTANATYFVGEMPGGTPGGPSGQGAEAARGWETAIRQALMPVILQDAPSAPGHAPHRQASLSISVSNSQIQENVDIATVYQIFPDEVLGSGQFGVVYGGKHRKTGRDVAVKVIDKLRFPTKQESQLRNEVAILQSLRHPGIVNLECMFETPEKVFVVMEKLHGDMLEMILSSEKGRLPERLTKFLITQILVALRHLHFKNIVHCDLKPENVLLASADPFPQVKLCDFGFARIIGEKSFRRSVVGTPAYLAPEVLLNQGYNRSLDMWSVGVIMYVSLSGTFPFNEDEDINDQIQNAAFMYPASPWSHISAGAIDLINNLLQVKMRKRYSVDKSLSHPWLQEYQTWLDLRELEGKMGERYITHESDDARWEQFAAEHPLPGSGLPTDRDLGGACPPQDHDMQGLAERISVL
The conditions noted are these: 10 uM.
Description: Inhibition of PKD at 10 uM

Data set [7] deals with T2, cAMP-dependent protein kinase catalytic subunit PRKX (Homo sapiens) (UniProt P51817).
T2 sequence (whole entry): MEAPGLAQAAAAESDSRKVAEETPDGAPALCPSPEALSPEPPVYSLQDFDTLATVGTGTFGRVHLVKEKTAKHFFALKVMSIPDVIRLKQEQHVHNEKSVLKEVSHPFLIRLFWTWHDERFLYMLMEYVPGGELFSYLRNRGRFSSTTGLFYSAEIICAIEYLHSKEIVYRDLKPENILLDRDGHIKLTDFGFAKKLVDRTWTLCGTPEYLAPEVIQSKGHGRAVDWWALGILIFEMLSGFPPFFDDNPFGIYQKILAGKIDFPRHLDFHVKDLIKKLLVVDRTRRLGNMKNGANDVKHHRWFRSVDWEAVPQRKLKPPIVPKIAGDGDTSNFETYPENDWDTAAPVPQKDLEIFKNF
As to conditions: 10 uM.
Description: Inhibition of PRKX at 10 uM

Data set [8] addresses Proto-oncogene tyrosine-protein kinase receptor Ret (Homo sapiens) (UniProt P07949). The conditions noted are these: 10 uM.
Description: Inhibition of RET at 10 uM
For data set [9], the target named is Rho-associated protein kinase 2 (Homo sapiens, UniProt O75116). The conditions noted are these: 10 uM.
Description: Inhibition of ROCK2 at 10 uM
For data set [10], the target named is T3, Serine/threonine-protein kinase Sgk2 (Homo sapiens) (UniProt Q9HBY8).
T3 sequence (whole entry): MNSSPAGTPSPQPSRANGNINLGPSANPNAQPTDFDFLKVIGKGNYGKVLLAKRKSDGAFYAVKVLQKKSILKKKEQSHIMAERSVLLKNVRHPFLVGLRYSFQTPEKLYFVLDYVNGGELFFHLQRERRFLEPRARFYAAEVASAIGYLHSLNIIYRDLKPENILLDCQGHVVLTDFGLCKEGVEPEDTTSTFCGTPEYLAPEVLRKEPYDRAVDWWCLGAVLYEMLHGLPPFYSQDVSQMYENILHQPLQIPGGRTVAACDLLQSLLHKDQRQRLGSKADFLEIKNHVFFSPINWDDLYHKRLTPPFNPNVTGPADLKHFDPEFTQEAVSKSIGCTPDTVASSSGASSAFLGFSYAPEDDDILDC
As to conditions: 10 uM.
Description: Inhibition of SGK2 at 10 uM

Data set [11] has as its target Serine/threonine-protein kinase SIK2 (Homo sapiens) (UniProt Q9H0K1). The conditions noted are these: 10 uM.
Description: Inhibition of SNFILK2 at 10 uM

Molecules are shown by their SMILES.

Proto-oncogene tyrosine-protein kinase receptor Ret (Homo sapiens), sequence (P07949 whole entry): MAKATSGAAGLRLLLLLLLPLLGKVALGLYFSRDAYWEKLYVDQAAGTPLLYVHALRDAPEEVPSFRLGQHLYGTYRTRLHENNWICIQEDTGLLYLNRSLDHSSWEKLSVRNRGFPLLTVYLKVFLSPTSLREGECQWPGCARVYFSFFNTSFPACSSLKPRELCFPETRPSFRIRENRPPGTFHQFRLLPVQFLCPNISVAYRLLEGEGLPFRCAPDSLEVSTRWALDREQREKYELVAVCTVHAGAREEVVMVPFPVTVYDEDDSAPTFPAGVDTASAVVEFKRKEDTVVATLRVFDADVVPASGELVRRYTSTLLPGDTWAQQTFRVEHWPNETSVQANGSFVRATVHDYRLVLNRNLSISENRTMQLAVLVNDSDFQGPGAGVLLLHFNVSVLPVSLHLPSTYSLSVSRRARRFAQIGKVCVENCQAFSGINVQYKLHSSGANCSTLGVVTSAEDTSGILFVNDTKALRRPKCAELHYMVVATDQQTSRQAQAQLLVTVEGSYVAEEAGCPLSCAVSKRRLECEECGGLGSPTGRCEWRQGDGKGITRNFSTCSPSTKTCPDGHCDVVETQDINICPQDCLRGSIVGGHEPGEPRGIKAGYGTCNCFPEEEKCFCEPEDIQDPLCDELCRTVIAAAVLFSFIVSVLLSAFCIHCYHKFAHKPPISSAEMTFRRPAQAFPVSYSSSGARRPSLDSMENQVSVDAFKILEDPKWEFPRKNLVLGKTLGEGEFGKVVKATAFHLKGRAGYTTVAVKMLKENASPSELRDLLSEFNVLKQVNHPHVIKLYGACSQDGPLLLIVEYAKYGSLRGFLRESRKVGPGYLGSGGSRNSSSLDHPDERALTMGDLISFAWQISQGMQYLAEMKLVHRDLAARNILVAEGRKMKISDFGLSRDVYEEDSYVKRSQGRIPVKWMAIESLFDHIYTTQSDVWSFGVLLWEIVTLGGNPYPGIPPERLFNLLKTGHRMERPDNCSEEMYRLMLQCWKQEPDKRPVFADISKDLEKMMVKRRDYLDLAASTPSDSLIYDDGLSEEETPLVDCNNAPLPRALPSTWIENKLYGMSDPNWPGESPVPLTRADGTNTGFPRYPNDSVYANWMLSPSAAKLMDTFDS
Mitogen-activated protein kinase kinase kinase kinase 4 (Homo sapiens), sequence (O95819 2-1239 limits assumed): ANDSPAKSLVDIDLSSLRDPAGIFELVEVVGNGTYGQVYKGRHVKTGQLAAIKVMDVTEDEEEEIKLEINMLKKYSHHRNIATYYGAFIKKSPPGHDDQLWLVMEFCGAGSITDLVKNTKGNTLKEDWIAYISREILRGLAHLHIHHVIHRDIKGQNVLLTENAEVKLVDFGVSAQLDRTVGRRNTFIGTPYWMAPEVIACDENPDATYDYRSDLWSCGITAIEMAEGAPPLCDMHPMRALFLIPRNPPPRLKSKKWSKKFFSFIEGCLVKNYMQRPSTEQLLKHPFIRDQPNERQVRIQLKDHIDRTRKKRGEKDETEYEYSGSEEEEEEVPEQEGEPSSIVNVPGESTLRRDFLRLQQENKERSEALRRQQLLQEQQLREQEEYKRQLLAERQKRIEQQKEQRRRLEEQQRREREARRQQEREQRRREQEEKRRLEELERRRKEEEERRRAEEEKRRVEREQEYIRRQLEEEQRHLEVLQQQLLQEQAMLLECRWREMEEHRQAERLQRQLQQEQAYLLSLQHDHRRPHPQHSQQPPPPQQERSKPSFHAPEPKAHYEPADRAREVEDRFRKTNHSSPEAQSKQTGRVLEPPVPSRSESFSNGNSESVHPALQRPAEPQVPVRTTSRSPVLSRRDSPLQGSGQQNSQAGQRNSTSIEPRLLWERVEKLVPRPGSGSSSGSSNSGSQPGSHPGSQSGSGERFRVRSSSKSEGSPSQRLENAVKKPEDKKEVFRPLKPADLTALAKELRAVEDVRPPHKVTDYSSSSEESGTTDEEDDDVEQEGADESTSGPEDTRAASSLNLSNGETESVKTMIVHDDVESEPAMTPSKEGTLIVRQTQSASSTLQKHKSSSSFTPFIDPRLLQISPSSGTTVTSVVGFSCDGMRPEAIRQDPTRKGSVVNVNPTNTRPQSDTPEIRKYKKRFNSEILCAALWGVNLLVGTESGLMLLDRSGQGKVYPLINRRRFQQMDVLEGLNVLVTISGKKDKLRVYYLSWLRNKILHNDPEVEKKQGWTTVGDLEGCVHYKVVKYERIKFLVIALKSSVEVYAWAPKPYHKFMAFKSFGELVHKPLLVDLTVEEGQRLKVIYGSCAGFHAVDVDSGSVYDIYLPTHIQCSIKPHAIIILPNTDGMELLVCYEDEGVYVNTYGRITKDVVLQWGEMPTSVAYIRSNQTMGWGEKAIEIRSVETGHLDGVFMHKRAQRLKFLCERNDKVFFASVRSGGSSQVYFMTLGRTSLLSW
Casein kinase I isoform alpha (Homo sapiens), sequence (P48729 2-337 limits assumed): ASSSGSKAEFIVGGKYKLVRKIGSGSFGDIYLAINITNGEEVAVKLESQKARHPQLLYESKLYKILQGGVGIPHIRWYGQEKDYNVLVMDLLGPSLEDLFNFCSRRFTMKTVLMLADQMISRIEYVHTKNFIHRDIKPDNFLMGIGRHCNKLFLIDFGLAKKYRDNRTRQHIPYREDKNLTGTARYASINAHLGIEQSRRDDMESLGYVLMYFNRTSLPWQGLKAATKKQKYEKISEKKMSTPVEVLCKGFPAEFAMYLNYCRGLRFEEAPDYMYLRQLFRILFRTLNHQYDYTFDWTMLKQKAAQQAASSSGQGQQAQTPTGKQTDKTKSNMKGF
Serine/threonine-protein kinase SIK2 (Homo sapiens), sequence (Q9H0K1 whole entry, looked up): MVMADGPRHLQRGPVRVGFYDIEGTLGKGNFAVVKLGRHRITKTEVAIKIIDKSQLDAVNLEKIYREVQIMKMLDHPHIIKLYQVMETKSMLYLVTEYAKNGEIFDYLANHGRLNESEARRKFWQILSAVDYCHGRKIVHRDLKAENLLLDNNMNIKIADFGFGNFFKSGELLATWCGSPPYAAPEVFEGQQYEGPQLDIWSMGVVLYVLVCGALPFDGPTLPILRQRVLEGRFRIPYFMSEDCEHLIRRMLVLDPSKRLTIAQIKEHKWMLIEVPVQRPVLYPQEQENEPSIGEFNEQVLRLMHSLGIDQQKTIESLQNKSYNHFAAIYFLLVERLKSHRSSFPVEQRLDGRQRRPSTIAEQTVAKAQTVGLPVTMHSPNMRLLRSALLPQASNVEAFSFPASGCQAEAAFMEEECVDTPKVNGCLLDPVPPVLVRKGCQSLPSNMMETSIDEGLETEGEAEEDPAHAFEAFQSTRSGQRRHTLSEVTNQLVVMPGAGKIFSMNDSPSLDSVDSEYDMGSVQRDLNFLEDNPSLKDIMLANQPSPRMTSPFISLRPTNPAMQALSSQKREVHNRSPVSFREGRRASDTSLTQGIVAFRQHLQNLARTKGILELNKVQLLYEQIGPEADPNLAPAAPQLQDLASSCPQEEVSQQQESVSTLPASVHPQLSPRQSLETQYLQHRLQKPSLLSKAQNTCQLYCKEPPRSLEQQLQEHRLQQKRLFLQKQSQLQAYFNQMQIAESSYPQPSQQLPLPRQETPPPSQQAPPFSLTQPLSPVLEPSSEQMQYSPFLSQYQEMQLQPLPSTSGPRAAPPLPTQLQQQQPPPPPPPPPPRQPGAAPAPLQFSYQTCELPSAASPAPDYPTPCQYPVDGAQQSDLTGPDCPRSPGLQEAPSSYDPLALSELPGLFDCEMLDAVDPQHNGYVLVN
Platelet-derived growth factor receptor alpha (Homo sapiens), sequence (P16234 whole entry): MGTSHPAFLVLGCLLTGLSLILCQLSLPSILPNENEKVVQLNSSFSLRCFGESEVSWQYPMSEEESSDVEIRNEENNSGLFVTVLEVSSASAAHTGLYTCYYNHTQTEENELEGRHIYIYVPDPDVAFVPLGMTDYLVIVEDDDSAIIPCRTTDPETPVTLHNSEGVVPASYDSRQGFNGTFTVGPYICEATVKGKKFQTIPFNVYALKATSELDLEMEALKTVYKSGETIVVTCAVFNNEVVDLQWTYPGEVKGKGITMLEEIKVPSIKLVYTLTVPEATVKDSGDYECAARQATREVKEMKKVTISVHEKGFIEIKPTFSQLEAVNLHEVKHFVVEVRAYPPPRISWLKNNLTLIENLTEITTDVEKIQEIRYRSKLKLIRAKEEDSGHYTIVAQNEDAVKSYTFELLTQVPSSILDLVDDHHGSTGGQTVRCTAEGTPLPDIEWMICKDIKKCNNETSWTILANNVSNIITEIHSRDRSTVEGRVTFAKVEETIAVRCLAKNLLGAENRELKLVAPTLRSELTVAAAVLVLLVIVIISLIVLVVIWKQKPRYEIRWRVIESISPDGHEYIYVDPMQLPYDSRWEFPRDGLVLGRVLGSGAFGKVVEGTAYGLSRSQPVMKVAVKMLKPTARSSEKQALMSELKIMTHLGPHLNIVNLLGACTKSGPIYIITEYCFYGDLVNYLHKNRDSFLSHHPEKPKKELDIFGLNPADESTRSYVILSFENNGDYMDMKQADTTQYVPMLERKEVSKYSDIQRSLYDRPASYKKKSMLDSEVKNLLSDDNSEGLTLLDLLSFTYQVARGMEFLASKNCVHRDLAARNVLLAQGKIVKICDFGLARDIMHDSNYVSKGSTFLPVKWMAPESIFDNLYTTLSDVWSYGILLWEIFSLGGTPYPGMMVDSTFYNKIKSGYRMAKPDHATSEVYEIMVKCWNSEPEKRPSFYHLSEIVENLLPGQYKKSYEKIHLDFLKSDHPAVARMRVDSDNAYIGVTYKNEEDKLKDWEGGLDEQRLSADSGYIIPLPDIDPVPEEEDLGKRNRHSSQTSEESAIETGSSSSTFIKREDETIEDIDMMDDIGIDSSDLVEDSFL

As a reminder, the clearance is the volume of plasma or blood freed of the substance per unit of time. Low readings indicate a low capacity for elimination, high ones a high capacity for elimination. A word on the half-life: it is the time needed for the level to fall by half in the phase considered. Read a low half-life as rapid decline. Broadly, the inhibition is the drop in the measured response relative to a control, in per cent. As to `Nc1nccc2cc(O[C@H]3CCCNC3)ccc12`, the clearance in data set [1] was 9.5 mL/min/kg. Besides, in [2], the half-life is 348 min. For the same molecule, the inhibition in data set [3], in data set [4], in [5], in data set [6], in [7] and in [8] was > 80% throughout. Further, the inhibition in data set [9], in [10] and in data set [11] was > 80% in each case.
